Holding throughout (type): biochemical
One experiment has as its target AKR1C3 (Homo sapiens (Human), UniProt P42330). In words: AKR enzyme inhibition assay, NADP+ dependent oxidation of S-tetralol, AKR1C3. The conditions noted are these: for selectivity over AKR1C2: AKR1C3 over AKR1C2; for Selectivity 1C2:1C3: ratio of AKR1C2 to AKR1C3 IC50.
Another experiment deals with AKR1C1 (Homo sapiens (Human), UniProt Q04828). The experiment is described as follows: AKR enzyme inhibition assay, NADP+ dependent oxidation of S-tetralol, AKR1C1. The conditions noted are these: Table 2; recombinant enzyme, S-tetralol at Km; read-out: IC50 ± SD AKR1C1.
Chain of AKR1C1 (Q04828 whole entry): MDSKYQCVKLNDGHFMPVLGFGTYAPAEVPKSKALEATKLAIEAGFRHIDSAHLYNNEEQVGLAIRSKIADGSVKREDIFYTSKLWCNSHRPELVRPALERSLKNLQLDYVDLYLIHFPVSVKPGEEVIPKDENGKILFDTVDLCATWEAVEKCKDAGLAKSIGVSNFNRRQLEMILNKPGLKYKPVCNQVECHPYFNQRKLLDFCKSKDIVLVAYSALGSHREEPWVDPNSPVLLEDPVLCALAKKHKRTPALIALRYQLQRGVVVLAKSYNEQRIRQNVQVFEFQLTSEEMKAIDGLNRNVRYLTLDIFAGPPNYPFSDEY
A further experiment deals with AKR1C2 (Homo sapiens (Human), UniProt P52895). The experiment is described as follows: AKR enzyme inhibition assay, NADP+ dependent oxidation of S-tetralol, AKR1C2 counter-screen. The note with it: Table 2; recombinant enzyme, S-tetralol at Km; read-out: IC50 ± SD AKR1C2. On the technique in general: Counterscreens check selectivity or assay interference.
Chain of AKR1C2 (P52895 whole entry): as the sequence (Q04828 whole entry) above, with T38V, R47H, L54V, C87S, V151M, R170H, Q172L counted along it
The next experiment concerns the target AKR1C4 (Homo sapiens (Human), UniProt P17516). In words: AKR enzyme inhibition assay, AKR1C4. The conditions noted are these: Table 2; recombinant enzyme; read-out: IC50 ± SD AKR1C4.
The mark [1] stands for this setting: Table 2, recombinant enzyme, S-tetralol at Km, read-out: IC50 ± SD AKR1C3.

By IC50 is commonly meant the midpoint of a concentration-inhibition curve.

Where two headings read alike, the source gives them in different places.

Chain of AKR1C3 (P42330 whole entry): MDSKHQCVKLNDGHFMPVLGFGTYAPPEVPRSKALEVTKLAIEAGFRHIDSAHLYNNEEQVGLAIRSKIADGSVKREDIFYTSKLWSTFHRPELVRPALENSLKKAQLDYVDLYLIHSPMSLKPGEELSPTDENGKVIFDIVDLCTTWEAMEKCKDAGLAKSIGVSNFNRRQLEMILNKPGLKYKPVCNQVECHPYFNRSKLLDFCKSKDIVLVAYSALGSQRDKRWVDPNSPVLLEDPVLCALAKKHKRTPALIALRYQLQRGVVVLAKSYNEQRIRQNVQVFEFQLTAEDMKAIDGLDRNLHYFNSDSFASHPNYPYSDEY
Chain of AKR1C4 (P17516 whole entry): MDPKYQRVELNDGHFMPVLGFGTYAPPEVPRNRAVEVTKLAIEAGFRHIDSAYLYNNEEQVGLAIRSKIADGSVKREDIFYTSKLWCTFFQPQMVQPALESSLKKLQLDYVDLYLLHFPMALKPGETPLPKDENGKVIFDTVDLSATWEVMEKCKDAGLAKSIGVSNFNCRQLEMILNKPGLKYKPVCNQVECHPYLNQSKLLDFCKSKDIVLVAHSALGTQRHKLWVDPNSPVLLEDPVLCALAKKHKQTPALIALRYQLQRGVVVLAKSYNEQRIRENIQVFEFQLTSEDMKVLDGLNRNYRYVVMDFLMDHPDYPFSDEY
Protocol for AKR1C1: (§1) Assay of enzyme activity: The dehydrogenase activities of AKR1C1, AKR1C2, and AKR1C3 were determined by measuring the formation of NADH formation at 340 nm using Beckman DU640 spectrophotometer. […] After continuously monitoring for 5 min, the increase in UV absorption using different concentrations of enzyme were recorded to calculate the initial velocity and determine enzyme specific activity. IC50 value determination: The inhibitory potency for each compound was represented by IC50 value and measured as described before. […] The concentration of S-tetralol used in the assays for each AKR1C isoform was equal to the Km value for the respective enzyme so that IC50 values could be directly compared assuming a competitive pattern of inhibition. […] In this equation, “range” is the fitted uninhibited value minus the “background”, and “S” is a slope factor. “I” is the concentration of inhibitor. The equation assumes that y falls with increasing “I”.
Protocol for AKR1C2: (§2) Structure-Activity Relationship: The ability of compounds to inhibit AKR1C3 in the first instance were determined by measuring the NADP+ dependent oxidation of S-tetralol catalyzed by recombinant enzyme as described herein. […] Assay of enzyme activity: The dehydrogenase activities of AKR1C1, AKR1C2, and AKR1C3 were determined by measuring the formation of NADH formation at 340 nm using Beckman DU640 spectrophotometer. […] After continuously monitoring for 5 min, the increase in UV absorption using different concentrations of enzyme were recorded to calculate the initial velocity and determine enzyme specific activity. IC50 value determination: The inhibitory potency for each compound was represented by IC50 value and measured as described before. […] The concentration of S-tetralol used in the assays for each AKR1C isoform was equal to the Km value for the respective enzyme so that IC50 values could be directly compared assuming a competitive pattern of inhibition. […] In this equation, “range” is the fitted uninhibited value minus the “background”, and “S” is a slope factor. “I” is the concentration of inhibitor. The equation assumes that y falls with increasing “I”.
Protocol for AKR1C3: as §2
Protocol for AKR1C4: as §1

Take `Cc1ccc(CNC(=O)c2cc(/C=C/C(=O)O)cc(-c3ccccc3)c2)cc1` [Compound A1-a, (E)-3-(5-((4-Methylbenzyl)carbamoyl)-[1,1′-biphenyl]-3-yl)acrylic acid]: the “selectivity over AKR1C2” value on AKR1C3 was more than 2320 fold. Further, the “Selectivity 1C2:1C3” value on AKR1C3 (Table 2) is more than 2500. In addition, the IC50 on AKR1C3 (read-out: IC50 AKR1C3) is 0.04 µM; at AKR1C1, more than 100 µM; at AKR1C2 it was more than 100 µM; on AKR1C4 it was 21 ± 2.5 µM.

Consider `C/C=C\Cc1cc(/C=C/C(=O)O)cc(C(=O)NCc2ccc(C)cc2)c1` [Compound A1-aa, (E)-3-(3-((Z)-but-2-en-1-yl)-5-((4-methylbenzyl)carbamoyl)phenyl)acrylic acid], for which the “selectivity over AKR1C2” value on AKR1C3 was found to be 200 fold. Besides, the IC50 at AKR1C3 (setting [1]) stood at 0.08 ± 0.004 µM; on AKR1C1 it was 81 ± 5.1 µM; on AKR1C2 it was 16 ± 2.5 µM; on AKR1C4, 25 ± 3.1 µM.

Regarding `Cc1ccc(CNC(=O)c2cc(/C=C/C(=O)O)cc(-c3ccc(Br)cc3)c2)cc1` [Compound A1-b, (E)-3-(4′-Bromo-5-((4-methylbenzyl)carbamoyl)-[1,1′-biphenyl]-3-yl)acrylic acid], the IC50 stood at 0.09 µM on AKR1C3 (read-out: IC50 AKR1C3), 107 ± 8 µM on AKR1C1, 25 ± 7 µM at AKR1C2 and 6.5 ± 0.6 µM on AKR1C4.

`Cc1ccc(CNC(=O)c2cc(/C=C/C(=O)O)cc(-c3ccc(Cl)cc3)c2)cc1` [Compound A1-c, (E)-3-(4′-Chloro-5-((4-methylbenzyl)carbamoyl)-[1,1′-biphenyl]-3-yl)acrylic acid]: on AKR1C3 (Table 2), the “Selectivity 1C2:1C3” value stood at 333. In addition, the IC50 at AKR1C3 (setting [1]) is 0.06 ± 0.007 µM; at AKR1C1, more than 100 µM; at AKR1C2 it was 20 ± 9 µM; on AKR1C4, 6 ± 0.5 µM.

Regarding `Cc1ccc(CNC(=O)c2cc(/C=C/C(=O)O)cc(-c3ccc(F)cc3)c2)cc1` [Compound A1-d, (E)-3-(4′-Fluoro-5-((4-methylbenzyl)carbamoyl)-[1,1′-biphenyl]-3-yl)acrylic acid], the “Selectivity 1C2:1C3” value on AKR1C3 (Table 2) turned out to be 600. Besides, the IC50 is 0.06 µM at AKR1C3 (read-out: IC50 AKR1C3), more than 100 µM at AKR1C1, 36 ± 4 µM on AKR1C2 and 8 ± 1.2 µM on AKR1C4.

Consider `Cc1ccc(CNC(=O)c2cc(/C=C/C(=O)O)cc(-c3ccccc3F)c2)cc1` [Compound A1-e, (E)-3-(2′-Fluoro-5-((4-methylbenzyl)carbamoyl)-[1,1′-biphenyl]-3-yl)acrylic acid], for which, at AKR1C3 (Table 2), the “Selectivity 1C2:1C3” value is more than 1430. The IC50 was 0.07 ± 0.009 µM at AKR1C3 (setting [1]), more than 100 µM on AKR1C1, more than 100 µM at AKR1C2 and 15.4 ± 1.7 µM at AKR1C4.

In the case of `Cc1ccc(CNC(=O)c2cc(/C=C/C(=O)O)cc(-c3cccc(F)c3)c2)cc1` [Compound A1-f, (E)-3-(3′-Fluoro-5-((4-methylbenzyl)carbamoyl)-[1,1′-biphenyl]-3-yl)acrylic acid], on AKR1C3, the “selectivity over AKR1C2” value is 960 fold. Also, the IC50 is 0.05 ± 0.004 µM at AKR1C3 (setting [1]), more than 100 µM on AKR1C1, 48 ± 16 µM at AKR1C2 and 16.4 ± 2 µM at AKR1C4.

As to `Cc1ccc(CNC(=O)c2cc(/C=C/C(=O)O)cc(-c3ccc(C)cc3)c2)cc1` [Compound A1-i, (E)-3-(4′-Methyl-5-((4-methylbenzyl)carbamoyl)-[1,1′-biphenyl]-3-yl)acrylic acid], the “Selectivity 1C2:1C3” value on AKR1C3 (Table 2) worked out at 160. Moreover, the IC50 is 0.1 ± 0.008 µM on AKR1C3 (setting [1]), 66 ± 17 µM on AKR1C1, 16 ± 3.9 µM at AKR1C2 and 10 ± 1.72 µM on AKR1C4.

`Cc1ccc(CNC(=O)c2cc(/C=C/C(=O)O)cc(-c3ccc4ccccc4c3)c2)cc1` [Compound A1-o, (E)-3-(3-((4-Methylbenzyl)carbamoyl)-5-(naphthalen-2-yl)phenyl)acrylic acid]: on AKR1C3, the “selectivity over AKR1C2” value stood at 140 fold. Further, the IC50 was determined as 0.1 µM at AKR1C3 (read-out: IC50 AKR1C3), 78 ± 9.3 µM at AKR1C1, 14 ± 4.1 µM at AKR1C2 and 6.1 ± 0.47 µM on AKR1C4.

Turning to `Cc1ccc(CNC(=O)c2cc(/C=C/C(=O)O)cc(-c3ccc4cccnc4c3)c2)cc1` [Compound A1-p, (E)-3-(3-((4-Methylbenzyl)carbamoyl)-5-(quinolin-7-yl)phenyl)acrylic acid], on AKR1C3 (Table 2), the “Selectivity 1C2:1C3” value is 109. Further, the concentration for half-maximal inhibition (IC50) on AKR1C3 (setting [1]) worked out at 0.11 ± 0.017 µM; at AKR1C1, 80 ± 13 µM; on AKR1C2 it was 12 ± 2.8 µM; at AKR1C4, 22 ± 2.3 µM.

On to `Cc1ccc(CNC(=O)c2cc(/C=C/C(=O)O)cc(-c3ccc4nccnc4c3)c2)cc1` [Compound A1-q, (E)-3-(3-((4-Methylbenzyl)carbamoyl)-5-(quinoxalin-6-yl)phenyl)acrylic acid], for which the “Selectivity 1C2:1C3” value at AKR1C3 (Table 2) was determined as 133. The IC50 at AKR1C3 (read-out: IC50 AKR1C3) is 0.094 µM; at AKR1C1 it was 70 ± 48 µM; at AKR1C2 it was 12.5 ± 2.1 µM; on AKR1C4, 31 ± 2.9 µM.

Turning to `Cc1ccc(CNC(=O)c2cc(/C=C/C(=O)O)cc(-c3ccc4c(c3)OCCO4)c2)cc1` [Compound A1-s, (E)-3-(3-(2,3-Dihydrobenzo[b][1,4]dioxin-6-yl)-5-((4-methylbenzyl)carbamoyl)phenyl)acrylic acid], the “selectivity over AKR1C2” value at AKR1C3 is reported as 200 fold. Also, the IC50 at AKR1C3 (setting [1]) was 0.11 ± 0.011 µM; on AKR1C1, more than 100 µM; on AKR1C2, 22 ± 4.5 µM; at AKR1C4, 53 ± 7.1 µM.

For the compound `Cc1ccc(CNC(=O)c2cc(/C=C/C(=O)O)cc(-c3ccc4c(c3)OCO4)c2)cc1` [Compound A1-t, (E)-3-(3-(Benzo[d][1,3]dioxol-5-yl)-5-((4-methylbenzyl)carbamoyl)phenyl)acrylic acid], the IC50 on AKR1C3 (read-out: IC50 AKR1C3) was 0.11 µM; at AKR1C1 it was more than 100 µM; at AKR1C2 it was 36 ± 9.7 µM; at AKR1C4, 16 ± 1.6 µM.

For the compound `Cc1ccc(CNC(=O)c2cc(/C=C/C(=O)O)cc(-c3ccc(-n4c5ccccc5c5ccccc54)cc3)c2)cc1` [Compound A1-v, (E)-3-(4′-(9H-Carbazol-9-yl)-5-((4-methylbenzyl)carbamoyl)-[1,1′-biphenyl]-3-yl)acrylic acid], on AKR1C3, the “selectivity over AKR1C2” value amounted to 221 fold. For the same compound, the IC50 amounted to 0.14 ± 0.015 µM on AKR1C3 (setting [1]), 36 ± 5.5 µM on AKR1C1, 31 ± 2.8 µM on AKR1C2 and 11 ± 3.1 µM at AKR1C4.

Regarding `C/C=C/Cc1cc(/C=C/C(=O)O)cc(C(=O)NCc2ccc(C)cc2)c1` [Compound A1-z, (E)-3-(3-((E)-But-2-en-1-yl)-5-((4-methylbenzyl)carbamoyl)phenyl)acrylic acid], the “selectivity over AKR1C2” value at AKR1C3 stood at 354 fold. For the same compound, the IC50 at AKR1C3 (read-out: IC50 AKR1C3) was 0.11 µM; on AKR1C1, more than 100 µM; on AKR1C2, 39 ± 9 µM; on AKR1C4, 70 ± 11 µM.

(Values after patent US20260035340A1, “INHIBITORS OF AKR1C3 AND METHODS OF USE” (BOARD OF REGENTS OF THE UNIVERSITY OF NEBRASKA, priority 2022, published 2026).)
